Patent US4181802A, “1-(Heterocyclylalkyl)-1,3-dihydro-2-H-benzimidazole-2-ones” (Janssen Pharmaceutica N.V., priority 1978, dated 1980)
Read-outs that look alike come from different tables or passages of the source.

What was measured:
Type in all cases: cell-based
[1] = biological target: T1, β-adrenergic receptor (β1), guinea-pig right atrium (Cavia porcellus, UniProt H0W3H1); test: Guinea-pig right atrium (β1): inhibition of isoprenaline-induced increase in heart rate; details: isolated guinea-pig right atrium, drug incubation 30 min, 37.5° C.
T1 construct: Spontaneously beating right atria are dissected from guinea-pigs; from tissue; host or cells: guinea-pig right atrium (strip with sinoatrial node)
T1 sequence (H0W3H1 1-470): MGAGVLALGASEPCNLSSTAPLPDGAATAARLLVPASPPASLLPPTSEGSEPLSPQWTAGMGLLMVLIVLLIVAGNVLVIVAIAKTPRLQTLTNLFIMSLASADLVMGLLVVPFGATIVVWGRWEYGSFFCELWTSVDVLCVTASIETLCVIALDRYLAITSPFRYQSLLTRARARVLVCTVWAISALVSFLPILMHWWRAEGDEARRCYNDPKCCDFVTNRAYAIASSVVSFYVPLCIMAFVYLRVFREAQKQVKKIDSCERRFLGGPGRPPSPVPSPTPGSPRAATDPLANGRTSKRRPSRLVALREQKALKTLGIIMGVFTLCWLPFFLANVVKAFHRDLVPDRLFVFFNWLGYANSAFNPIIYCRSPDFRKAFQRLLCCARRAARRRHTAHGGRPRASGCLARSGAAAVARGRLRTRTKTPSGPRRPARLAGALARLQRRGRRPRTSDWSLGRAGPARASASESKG
Procedure: 1. GUINEA-PIG RIGHT ATRIUM (β1)
Spontaneously beating right atria are dissected from guinea-pigs (400±50 g). A triangular strip of atrium, including the sinoatrial node is excised together with the anterior vena cava.
The vena is fixed to a glass muscle holder and the opposite atrial muscle is connected to a Grass isometric transducer. Atria are suspended at optimal preload in a 100 ml Krebs-Henseleit solution, containing 2 g/l glucose, at 37.5° C. and aerated with 95% O2 and 5% CO2.
Heart rate and contractile force are recorded by means of a Grass FTO3C isometric transducer. Output signals amplified by an isometric transducer amplifier (J.S.I.) via a cardiotachometer (J.S.I.) are recorded on a Honeywell XYY' recorder. […] This produces a dose related increase in heart rate (a). After washing out isoprenaline a stabilization period of 15 min. is allowed. A drug is then added to the bath fluid for 30 min. During this incubation period possible direct chronotropic and inotropic effects of the drug are determined. Following this, a second dose-response curve for isoprenaline is produced by infusion during 10 minutes (b). The slope of the increase in rate is graphically estimated for each period of isoprenaline addition and the ratio b/a is calculated. Based on solvent experiments a ratio of less than 0.70 is considered as the criterion of inhibitory activity. ED50 -values are estimated graphically.

[2] = biological target: T2, β-adrenergic receptor (β2), guinea-pig tracheal ring (Cavia porcellus, UniProt Q8K4Z4); test: Guinea-pig tracheal ring (β2): inhibition of isoprenaline-induced relaxation; details: guinea-pig tracheal ring, methacholine 1 μg/ml, isoprenaline 0.08 μg/ml, 35° C., read-out: β2 = ED50 tracheal ring (converted)
T2 construct: The trachea is dissected from guinea-pigs; from tissue; host or cells: guinea-pig tracheal smooth muscle (rings)
T2 sequence (Q8K4Z4 whole entry): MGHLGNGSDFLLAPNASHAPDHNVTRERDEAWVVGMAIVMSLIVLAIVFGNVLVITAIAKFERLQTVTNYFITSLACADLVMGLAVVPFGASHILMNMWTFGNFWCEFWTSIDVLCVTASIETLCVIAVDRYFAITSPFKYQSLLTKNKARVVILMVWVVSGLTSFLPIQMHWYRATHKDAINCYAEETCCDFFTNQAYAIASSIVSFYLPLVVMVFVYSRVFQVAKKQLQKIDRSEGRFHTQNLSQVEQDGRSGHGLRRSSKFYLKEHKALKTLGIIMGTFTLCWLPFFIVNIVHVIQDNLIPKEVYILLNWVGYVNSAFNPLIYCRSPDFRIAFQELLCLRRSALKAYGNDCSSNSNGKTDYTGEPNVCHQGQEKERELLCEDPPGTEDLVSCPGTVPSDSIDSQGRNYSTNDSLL
Source text: (§1) 2. GUINEA-PIG TRACHEAL RING (β2)
(§2) The trachea is dissected from guinea-pigs (400±50 g). Four rings, approximately 8 mm in width, are then cut from each trachea. Cartilaginous parts of the tracheal ring are mounted horizontally between two metal rods, one of which is attached to a glass organholder, the other rod being connected to a Grass isometric transducer. Using such a technique the tracheal smooth muscle is suspended optimally i.e. midway between the cartilaginous parts. the prepared rings are suspended in a 100 ml organ chamber filled with Tyrode solution, maintained at 35° C. and aerated with 95% O2 and 5% CO2. The preparation is maintained at tension of 1.5 g throughout the experiment. Tension changes recorded are thus an expression of contraction or relaxation. After a stabilization period of 30 min contraction is induced by adding methacholine (1 μg/ml) to the bath for a 10 min period. Addition of isoprenaline (0.08 μg/ml) for 4 min. in the presence of methacholine induces a relaxation of the tracheal ring. This procedure is repeated twice before adding the drug (t-33'; t-19') and once 30 min after addition of the drug. During the incubation period any direct effects of the drug are measured. A 50% inhibition of the agonist-induced response is used as the criterion of effectiveness and ED50 values (with fiducial limits) are determined by probit analysis.
(§3) The ratio of the ED50 -values obtained in respectively the tracheal ring test (β2) and in the right atrium test (β1) may be considered as an index of the cardioselectivity of the test drug.

[3] = tested on: β-adrenergic receptor (β2), guinea-pig tracheal ring; test: as above; details: ratio of ED50 tracheal ring / ED50 right atrium; for β2/β1 (ratio of the ED50 values, tracheal ring to right atrium; index of cardioselectivity): Table I
Source text: as §1, §2, §3

[4] = Table I, ED50 estimated graphically
[5] = Table I, 30 min after drug, probit analysis

Structure (SMILES) | IC50 [1, 4] | IC50 [2, 5] | β2/β1 (ratio of the ED50 values, tracheal ring to right atrium; index of cardioselectivity) [3] | IC50 ([1]; Table II, read-out: β1 = ED50 right atrium (converted)) | IC50 ([2]; Table II) | β2/β1 (ratio of the ED50 values; index of cardioselectivity) ([3]; Table II)
O=c1[nH]c2cc(F)ccc2n1CC1CCCN(CC(O)COc2ccccc2)C1 (stereo not drawn) [C6 H5,5-F] | 3.13 nM | 12.5 nM | 4 | – | – | –
O=c1[nH]c2ccc(Cl)cc2n1CC1CCCN(CC(O)COc2ccc(F)cc2)C1 (stereo not drawn) [4-FC6 H4,6-Cl] | 11.5 nM | 184 nM | 16 | – | – | –
CSc1ccc(OCC(O)CN2CCCC(Cn3c(=O)[nH]c4ccccc43)C2)cc1 (stereo not drawn) [4-(CH3 S)C6 H4, H] | 1.47 nM | 46.8 nM | 32 | – | – | –
Cc1cc(OCC(O)CN2CCCC(Cn3c(=O)[nH]c4ccccc43)C2)cc(C)c1Cl (stereo not drawn) [3,5-(CH3)2-4-ClC6 H2, H] | 5.63 nM | 2820 nM | 500 | – | – | –
CC(C)Oc1ccccc1OCC(O)CN1CCCC(Cn2c(=O)[nH]c3ccccc32)C1 (stereo not drawn) [2-(iC3 H7 O)C6 H4, H] | 11.4 nM | 91 nM | 8 | – | – | –
CCc1ccccc1OCC(O)CN1CCCC(Cn2c(=O)[nH]c3ccccc32)C1 (stereo not drawn) [2-(C2 H5)C6 H4, H] | 6.1 nM | 48.8 nM | 8 | – | – | –
COc1ccccc1OCC(O)CN1CCCC(Cn2c(=O)[nH]c3ccc(Cl)cc32)C1 (stereo not drawn) [2-(CH3 O)C6 H4,6-Cl, 6-chloro-1,3-dihydro-1-{1-[2-hydroxy-3-(2-methoxyphenoxy)propyl]-3-piperidinylmethyl}-2H-benzimidazol-2-one] | 1.41 nM | 89.7 nM | 63 | – | – | –
COc1ccccc1OCC(O)CN1CCCC(Cn2c(=O)[nH]c3ccccc32)C1 (stereo not drawn) [2-(CH3 O)C6 H4, H, 1,3-dihydro-1-{1-[2-hydroxy-3-(2-methoxyphenoxy)propyl]-3-piperidinylmethyl}-2H-benzimidazol-2-one] | 2.43 nM | 12.2 nM | 5 | – | – | –
CC(=O)Nc1ccc(OCC(O)CN2CCCC(Cn3c(=O)[nH]c4ccccc43)C2)cc1 (stereo not drawn) [4-(CH3 CONH)C6 H4, H] | 5.7 nM | 410 nM | 72 | – | – | –
O=c1[nH]c2ccccc2n1CC1CCCN(CC(O)COc2cccc3ccccc23)C1 (stereo not drawn) [1-naphthalenyl, H] | 23.2 nM | 2900 nM | 125 | – | – | –
C=CCc1ccccc1OCC(O)CN1CCCC(Cn2c(=O)[nH]c3ccccc32)C1 (stereo not drawn) [2-(CH2CHCH2)C6 H4, H] | 5.93 nM | 85.4 nM | 14 | – | – | –
O=c1[nH]c2ccccc2n1CC1CCCN(CC(O)COc2ccc(Br)cc2)C1 (stereo not drawn) [4-BrC6 H4, H] | 10.9 nM | 2720 nM | 250 | – | – | –
O=c1[nH]c2cc(Cl)ccc2n1CC1CCCN(CC(O)COc2ccccc2)C1 (stereo not drawn) [C6 H5,5-Cl] | 12 nM | 192 nM | 16 | – | – | –
CC(=O)c1ccc(OCC(O)CN2CCCC(Cn3c(=O)[nH]c4ccccc43)C2)cc1 (stereo not drawn) [4-(CH3 CO)C6 H4, H] | 5.9 nM | 47.2 nM | 8 | – | – | –
CCCc1ccc(OCC(O)CN2CCCC(Cn3c(=O)[nH]c4cc(F)ccc43)C2)cc1 (stereo not drawn) [4-(nC3 H7)C6 H4,5-F] | 22.6 nM | 1430 nM | 63 | – | – | –
C=CCOc1ccccc1OCC(O)CN1CCCC(Cn2c(=O)[nH]c3ccccc32)C1 (stereo not drawn) [2-(CH2CHCH2 O)C6 H4, H] | 2.86 nM | 45.7 nM | 16 | – | – | –
CCOc1ccccc1OCC(O)CN1CCCC(Cn2c(=O)[nH]c3ccc(Cl)cc32)C1 (stereo not drawn) [2-(C2 H5 O)C6 H4,6-Cl] | 21.7 nM | 391 nM | 18 | – | – | –

Structure (SMILES) | IC50 [1, 4] | IC50 [2, 5] | β2/β1 (ratio of the ED50 values, tracheal ring to right atrium; index of cardioselectivity) [3] | IC50 ([1]; Table II, read-out: β1 = ED50 right atrium (converted)) | IC50 ([2]; Table II) | β2/β1 (ratio of the ED50 values; index of cardioselectivity) ([3]; Table II)
N#Cc1ccccc1OCC(O)CN1CCCC(Cn2c(=O)[nH]c3ccccc32)C1 (stereo not drawn) [2-CNC6 H4, H] | 6.15 nM | 12.3 nM | 2 | – | – | –
O=c1[nH]c2ccc(Cl)cc2n1CC1CCCN(CC(O)COc2cccc3ccccc23)C1 (stereo not drawn) [1-naphthalenyl, 6-Cl] | 10.7 nM | 343 nM | 32 | – | – | –
O=c1[nH]c2ccccc2n1CC1CCCN(CC(O)COc2ccc(F)cc2)C1 (stereo not drawn) [4-FC6 H4, H] | 3.13 nM | 25 nM | 8 | – | – | –
Cc1cccc(OCC(O)CN2CCCC(Cn3c(=O)[nH]c4ccccc43)C2)c1 (stereo not drawn) [3-(CH3)C6 H4, H] | 6.32 nM | 50.6 nM | 8 | – | – | –
O=c1[nH]c2ccccc2n1CC1CCCN(CC(O)COc2ccccc2Br)C1 (stereo not drawn) [2-BrC6 H4, H] | 5.43 nM | 119 nM | 22 | – | – | –
CCOc1ccccc1OCC(O)CN1CCCC(Cn2c(=O)[nH]c3ccccc32)C1 (stereo not drawn) [2-(C2 H5 O)C6 H4, H] | 5.88 nM | 23.5 nM | 4 | – | – | –
O=c1[nH]c2cc(Cl)ccc2n1CC1CCCN(CC(O)COc2ccc(F)cc2)C1 (stereo not drawn) [4-FC6 H4,5-Cl] | 11.5 nM | 714 nM | 62 | – | – | –
O=c1[nH]c2ccccc2n1CC1CCCN(CC(O)C2COc3ccccc3O2)C1 (stereo not drawn) [1-{1-[2-(2,3-dihydro-1,4-benzodioxin-2-yl)-2-hydroxyethyl]-3-piperidinylmethyl}-1,3-dihydro-2H-benzimidazol-2-one] | – | – | – | 12.2 nM | 48.8 nM | 4
Cc1cccc(OCC(O)CN2CCCC(Cn3c(=O)[nH]c4ccccc43)C2)c1C (stereo not drawn) [2,3-(CH3)2C6 H3, H] | 6.1 nM | 48.8 nM | 8 | – | – | –
CC(=O)c1ccccc1OCC(O)CN1CCCC(Cn2c(=O)[nH]c3ccccc32)C1 (stereo not drawn) [2-(CH3 CO)C6 H4, H] | 2.95 nM | 2.95 nM | 1 | – | – | –
CCCOc1ccccc1OCC(O)CN1CCCC(Cn2c(=O)[nH]c3ccccc32)C1 (stereo not drawn) [2-(nC3 H7 O)C6 H4, H] | 5.69 nM | 22.8 nM | 4 | – | – | –
COc1ccc(OCC(O)CN2CCCC(Cn3c(=O)[nH]c4ccccc43)C2)cc1 (stereo not drawn) [4-(CH3 O)C6 H4, H] | 24.3 nM | 48.6 nM | 2 | – | – | –
CCCCNC(=O)Nc1ccc(OCC(O)CN2CCCC(Cn3c(=O)[nH]c4ccccc43)C2)cc1 (stereo not drawn) [4-(nC4 H9NHCONH)C6 H4, H] | 20.2 nM | 161 nM | 8 | – | – | –
O=c1[nH]c2ccccc2n1CC1CCCN(CC(O)COc2ccc(Cl)cc2)C1 (stereo not drawn) [4-ClC6 H4, H] | 48.1 nM | 769 nM | 16 | – | – | –
N#Cc1ccccc1OCC(O)CN1CCCC(Cn2c(=O)[nH]c3ccc(Cl)cc32)C1 (stereo not drawn) [2-CNC6 H4,6-Cl] | 11.3 nM | 181 nM | 16 | – | – | –
O=c1[nH]c2ccccc2n1CC1CCCN(CC(O)COc2ccccc2)C1 (stereo not drawn) [C6 H5, H] | 1.65 nM | 23.3 nM | 15 | – | – | –
